Experiment [1] deals with T1, TrkA (or NTRK1) (Homo sapiens, UniProt P04629).
T1 construct: using the soluble intracellular segment of theses receptors, containing the kinase activity; purchased Millipore
The experiment is described as follows: In vitro kinase glo plus-based kinase assay, TrkA. It is filed as biochemical. Particulars: comparative experiments; 30 μM ATP. The method, then: (§1) Plates were removed from incubator, and 50 μl of kinase-glo plus was added to each well, followed by a 10 minute incubation at room temperature. The luciferase-induced luminescence, which is proportional to the ATP remaining in the well, was measured on a luminometer. Controls on each plates included wells with the kinase alone (maximal ATP consumption, or 0% inhibition), wells without the kinase (maximal ATP signal or 100% inhibition), and wells with 20 μM staurosporine (positive control of inhibition).
(In general: In Kinase-Glo more light means more ATP remaining.)

Experiment [2] deals with T2, TrkB (or NTRK2) (Homo sapiens, UniProt Q16620).
T2 construct: using the soluble intracellular segment of theses receptors, containing the kinase activity; purchased Invitrogen
As to the kind of experiment: In vitro kinase glo plus-based kinase assay, TrkB. It is filed as biochemical. The following applies: comparative experiments; 40 μM ATP. The method, then:
as §1, with “An in vitro kinase glo plus-based kinase assay (Promega) was developed in a 96 wells assay plate format to assess the inhibiting properties of compounds on tropomyosin related kinases (Trk) receptors, using the soluble intracellular segment of theses receptors, containing the kinase activity (TrkA (or NTRK1; 400 ng/well; […] Invitrogen)). […] Plates” for “Plates”, “inhibition). […] N=42; […]” for “inhibition).”

In experiment [3] the target is T3, TrkA (Homo sapiens, UniProt P04629).
T3 construct: purchased Millipore or Kinome Scan (DiscoverX)
The experiment is described as follows: Test for measuring inhibition of TrkA kinase (Millipore or Kinome Scan, manufacturer's protocols). Particulars: read-out: Enzymatic inhibition at 10 nM (%) TrkA. Format: biochemical. The source says: (§2) Test for Measuring Inhibition of TrkA, TrkB or TrkC Kinase
(§3) These kinases are produced by Millipore or Kinome Scan (DiscoverX) and are screened according to the manufacturer's protocols.

For experiment [4], the target named is T4, TrkB (Homo sapiens, UniProt Q16620).
T4 construct: purchased Millipore or Kinome Scan (DiscoverX)
The experiment is described as follows: Test for measuring inhibition of TrkB kinase (Millipore or Kinome Scan, manufacturer's protocols). Format: biochemical. The following applies: read-out: Enzymatic inhibition at 10 nM (%) TrkB.
Source text: as §2, §3

In experiment [5] the target is T5, TrkC (Homo sapiens, UniProt Q16288).
T5 construct: purchased Millipore or Kinome Scan (DiscoverX)
As to the kind of experiment: Test for measuring inhibition of TrkC kinase (Millipore or Kinome Scan, manufacturer's protocols). The following applies: read-out: Enzymatic inhibition at 10 nM (%) TrkC. Format: biochemical.
Source text: as §2, §3

Experiment [6] relates to formalin test (paw licking). As to the kind of experiment: In vivo analgesic activity in the formalin test. Set-up: species or system rat. Particulars: rats, second phase of the formalin test, vs. vehicle-treated animals, P<0.05. From the text: In Vivo Analgesic Activity in the Formalin Test in Rats The method was adapted from Wheeler-Aceto et al. (Pain, 1990, 40:229-38) and Bardin et al. (2003, Pharmacology 67: 182-194). In the second phase of the test, Compound 30 inhibited paw licking by 44% vs. vehicle-treated animals (P<0.05 by ANOVA).

Experiment [7] concerns inflammatory pain induced by Complete Freund Adjuvant (CFA). As to the kind of experiment: In vivo analgesic activity against acute and chronic inflammatory pain induced by Complete Freund Adjuvant (CFA). Particulars: rat. From the text:
In Vivo Analgesic Activity Against Acute and Chronic Inflammatory Pain Induced by Complete Freund Adjuvant (CFA)
Male Sprague-Dawley rats [Crl:OFA(SD) Charles River Lyon, France] weighing 160-180 g upon arrival were used. Rats were first daily habituated to handling and to the test apparatus used for the von-Frey and hot-plate models one week before the induction of inflammation. On the following Monday, they were subjected to nociceptive tests for determination of basal scores. Then, rats will be given a 100 μl subcutaneous injection of CFA (1 mg/1 ml; Sigma) into the plantar surface of the right hind paw (day 0: D0). Saline was injected by the same route in the placebo group.
Then each rat was placed on an elevated plastic mesh in a clear plastic cage and the number of spontaneous flinches (measurement of spontaneous pain) was recorded during 10 min. Mechanical allodynia was assessed using the von Frey Hair test. Each rat was placed on an elevated plastic mesh in a clear plastic cage and allowed to adapt to the testing environment for at least 5 min. The von Frey Hairs (Semmes-Weinstein monofilaments, Stoelting Ill., USA; 0.6, 1.4, 2, 4, 6, 8, 10, and 15 g) was applied to the plantar surface of the injected paw from below the mesh floor for […] in the ascending order. The threshold was determined as the lowest force that evoked a withdrawal response. The test was repeated three times with an interval of 5 min between each test. The paw withdrawal score to the tactile stimulus was determined as the average of the 3 measurements. Animals received intraperitoneal or oral injections of test compounds. […] Compound completely or nearly completely reversed spontaneous pain from 0.16 mg/kg and mechanical allodynia from 2.5 mg/kg.

Experiment [8] concerns bone cancer pain. As to the kind of experiment: In vivo analgesic activity against chronic pain in a model of bone cancer pain (NCTC 2472 fibrosarcoma cells in tibia). On the set-up: species or system mouse. The following applies: C3H/HeNCrl mice. The protocol: In Vivo Analgesic Activity Against Chronic Pain in a Model of Bone Cancer Pain
Bone cancer produces one of the most painful conditions that affect humans and animals. […] Several models of murine osteosarcoma-induced pain have been developed (Pacharinsak and Beitz, Animal models of cancer pain. Comp Med. 2008 June; 58:220-33.).
We induced bone cancer pain by implanting 10 μl of PBS containing 2×10^5 NCTC 2472 osteolytic fibrosarcoma cells into the tibia of 5-6 week-old C3H/HeNCrl mice under isoflurane anesthesia. The presence of these cells induces osteolytic lesions in bone due to both an increase in the number of osteoclasts and to their activation, which leads to the destruction of bone tissue and the invasion of the adjacent soft tissue and pain related behaviours. Pain-related behaviours were evaluated both prior to and at 3, 7, 10, 14 and 17 days following tumor cell injection. The following behaviors were evaluated: • Limb use during spontaneous ambulation on a scale of 0-4 where 0=normal use and 4=no use of the injected hind paw; • Light touch-evoked pain. Light touch induced flinching were measured after the 1 min period of non noxious stimulation of the tumor injected paw with a small paint brush. The numbers of flinches were recorded over 5 min. […]

For experiment [9], the system named is NGF-induced hyperalgesia. As to the kind of experiment: In vivo analgesic activity against NGF-induced hyperalgesia (hot plate). Particulars: mouse; for inhibition of NGF-induced hyperalgesia (latency time): given 30 min before NGF, hot plate four hours after NGF. The method, then:
In Vivo Analgesic Activity Against NGF-Induced Hyperalgesia Compounds of general formula (I), and particularly compound 30 have been tested in vivo in the mouse receiving an intraplantar injection of NGF. This treatment elicits thermal hyperalgesia (Schuligoi et al., 1998, Neuroscience Letters 252:147-149). Briefly, male mice received a 10 μl subcutaneous injection of NGFβ (1 μg; SIGMA) into the plantar surface of the right hind paw. Following the injection, mice were returned to their cages. Four hours after NGF injection, mice were placed on the centre of the hot plate analgesimeter (BIO-HC2.00, Bioseb, France), and the latency time to the first brisk lift or lick of a hind paw or jumping will be recorded. A maximum cut-off time of 60 sec is used to prevent tissue damage. Results are given as the mean±s.e.m. of the latency time. Test compounds were given 30 min before NGF injection.

T3 sequence (P04629 33-796): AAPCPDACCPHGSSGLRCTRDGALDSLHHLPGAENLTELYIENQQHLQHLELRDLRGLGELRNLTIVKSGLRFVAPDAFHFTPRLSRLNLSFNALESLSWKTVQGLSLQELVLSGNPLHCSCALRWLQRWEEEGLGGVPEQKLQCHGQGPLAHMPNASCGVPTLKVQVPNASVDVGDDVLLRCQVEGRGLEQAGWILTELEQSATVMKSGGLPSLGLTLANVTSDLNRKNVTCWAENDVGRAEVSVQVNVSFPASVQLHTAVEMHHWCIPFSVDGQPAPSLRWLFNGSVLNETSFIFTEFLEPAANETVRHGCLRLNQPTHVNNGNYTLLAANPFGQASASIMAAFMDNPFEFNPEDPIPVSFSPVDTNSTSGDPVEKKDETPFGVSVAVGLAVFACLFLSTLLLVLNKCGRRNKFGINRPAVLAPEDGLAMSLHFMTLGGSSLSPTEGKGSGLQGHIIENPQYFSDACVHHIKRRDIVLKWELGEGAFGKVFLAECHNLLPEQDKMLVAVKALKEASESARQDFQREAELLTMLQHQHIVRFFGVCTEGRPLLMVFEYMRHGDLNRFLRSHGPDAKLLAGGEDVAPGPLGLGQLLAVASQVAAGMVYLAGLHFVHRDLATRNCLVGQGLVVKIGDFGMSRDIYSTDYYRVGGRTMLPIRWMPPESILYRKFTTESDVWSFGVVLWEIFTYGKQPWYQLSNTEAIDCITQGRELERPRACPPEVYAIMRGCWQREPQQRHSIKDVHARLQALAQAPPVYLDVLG
T5 sequence (Q16288 32-839): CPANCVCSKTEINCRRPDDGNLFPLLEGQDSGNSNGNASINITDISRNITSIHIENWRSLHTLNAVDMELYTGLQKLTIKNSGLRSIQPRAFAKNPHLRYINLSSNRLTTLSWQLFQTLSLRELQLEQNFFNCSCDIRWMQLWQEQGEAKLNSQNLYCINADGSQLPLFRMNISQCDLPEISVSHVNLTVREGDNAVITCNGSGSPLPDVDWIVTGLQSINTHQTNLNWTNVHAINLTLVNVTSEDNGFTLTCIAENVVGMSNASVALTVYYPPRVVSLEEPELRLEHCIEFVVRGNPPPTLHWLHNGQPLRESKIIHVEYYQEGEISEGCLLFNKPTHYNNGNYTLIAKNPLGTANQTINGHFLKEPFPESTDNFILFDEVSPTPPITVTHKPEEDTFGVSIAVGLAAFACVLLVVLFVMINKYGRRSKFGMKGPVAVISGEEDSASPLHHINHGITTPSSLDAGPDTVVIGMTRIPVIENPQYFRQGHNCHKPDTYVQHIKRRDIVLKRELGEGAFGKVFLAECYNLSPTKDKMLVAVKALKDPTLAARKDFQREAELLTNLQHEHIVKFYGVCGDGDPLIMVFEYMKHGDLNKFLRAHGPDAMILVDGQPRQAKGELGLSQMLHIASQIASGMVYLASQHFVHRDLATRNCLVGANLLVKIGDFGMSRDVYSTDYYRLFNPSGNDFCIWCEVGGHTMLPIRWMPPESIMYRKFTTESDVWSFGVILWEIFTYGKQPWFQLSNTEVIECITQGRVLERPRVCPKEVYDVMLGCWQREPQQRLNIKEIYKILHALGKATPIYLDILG
T4 sequence (Q16620 32-822): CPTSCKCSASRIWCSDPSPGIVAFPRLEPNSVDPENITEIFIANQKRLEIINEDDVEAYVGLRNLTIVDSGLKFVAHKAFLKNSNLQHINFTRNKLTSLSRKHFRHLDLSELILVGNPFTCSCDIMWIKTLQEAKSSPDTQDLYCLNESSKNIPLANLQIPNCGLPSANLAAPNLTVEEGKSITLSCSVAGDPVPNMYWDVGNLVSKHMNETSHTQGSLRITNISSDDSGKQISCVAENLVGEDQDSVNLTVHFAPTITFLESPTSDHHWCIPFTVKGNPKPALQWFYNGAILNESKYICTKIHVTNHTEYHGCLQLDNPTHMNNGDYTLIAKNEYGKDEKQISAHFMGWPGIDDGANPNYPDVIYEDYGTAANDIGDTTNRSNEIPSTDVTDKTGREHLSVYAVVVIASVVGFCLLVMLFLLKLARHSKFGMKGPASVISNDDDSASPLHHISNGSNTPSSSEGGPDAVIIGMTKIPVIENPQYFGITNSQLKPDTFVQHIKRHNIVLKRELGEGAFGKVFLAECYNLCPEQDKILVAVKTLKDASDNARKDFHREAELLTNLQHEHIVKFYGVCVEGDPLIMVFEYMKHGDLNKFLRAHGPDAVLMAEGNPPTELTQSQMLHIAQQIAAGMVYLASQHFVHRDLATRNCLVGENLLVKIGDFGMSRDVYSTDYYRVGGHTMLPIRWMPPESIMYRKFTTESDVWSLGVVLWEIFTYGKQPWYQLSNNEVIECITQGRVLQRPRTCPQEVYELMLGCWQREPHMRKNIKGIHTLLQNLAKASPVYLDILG
T2 sequence (Q16620 455-822 limits assumed): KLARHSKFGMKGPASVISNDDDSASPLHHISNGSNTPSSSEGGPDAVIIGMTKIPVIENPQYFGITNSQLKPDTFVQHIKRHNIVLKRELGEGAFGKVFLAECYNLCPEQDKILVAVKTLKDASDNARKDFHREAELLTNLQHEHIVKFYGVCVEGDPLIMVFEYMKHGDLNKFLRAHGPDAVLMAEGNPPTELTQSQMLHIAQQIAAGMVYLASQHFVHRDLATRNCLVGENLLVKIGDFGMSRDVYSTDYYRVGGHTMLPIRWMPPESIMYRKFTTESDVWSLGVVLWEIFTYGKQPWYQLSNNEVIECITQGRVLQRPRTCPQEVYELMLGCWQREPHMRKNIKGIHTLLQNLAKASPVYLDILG
T1 sequence (P04629 440-796 limits assumed): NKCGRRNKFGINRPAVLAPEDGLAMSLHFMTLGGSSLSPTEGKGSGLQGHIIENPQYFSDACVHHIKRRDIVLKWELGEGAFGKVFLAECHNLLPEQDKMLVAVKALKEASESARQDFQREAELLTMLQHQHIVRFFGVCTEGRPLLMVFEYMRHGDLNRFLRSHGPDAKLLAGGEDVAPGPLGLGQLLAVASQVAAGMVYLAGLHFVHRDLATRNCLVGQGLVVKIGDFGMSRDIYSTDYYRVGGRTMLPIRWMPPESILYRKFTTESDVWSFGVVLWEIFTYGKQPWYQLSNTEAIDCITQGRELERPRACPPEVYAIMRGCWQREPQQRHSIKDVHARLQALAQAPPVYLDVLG

As a reminder, the IC50 is the concentration that inhibits the measured activity by half. Turning to `CN1CCN(c2ccc(C(=O)Nc3n[nH]c4nc(Nc5cc(F)cc(F)c5)ncc34)c(NC3CCOCC3)c2)CC1` [A], the IC50 in experiment [1] was about 10 µM; in experiment [2], over 100 µM.

For the molecule `CN1CCN(c2ccc(C(=O)Nc3n[nH]c4nc(Nc5ccc(F)cc5F)ncc34)c(NC3CCOCC3)c2)CC1` [B], the IC50 stood at 3.3 µM in experiment [1] and 18 µM in [2].

As to `CN1CCN(c2ccc(C(=O)Nc3n[nH]c4nc(Nc5ccc(F)cc5F)ccc34)c(NC3CCOCC3)c2)CC1` [C], the figures for the IC50 in experiment [1] and in experiment [2] were 2.1 µM and 5.8 µM, respectively.

By inhibition is commonly meant the change of the read-out against control, counted positive when it falls. On to `CN1CCN(c2ccc(C(=O)Nc3n[nH]c4nc(N)c(Sc5cc(F)cc(F)c5)cc34)c(NC3CCOCC3)c2)CC1` [Compound 14-11, N-(6-amino-5-(3,5-difluorophenylthio)-1H-pyrazolo[3,4-b]pyridin-3-yl)-4-(4-methylpiperazin-1-yl)-2-(tetrahydro-2H-pyran-4-ylamino)benzamide], for which the inhibition at 0.01 µM in [3] amounted to 97.4%; in experiment [4], 88%; in [5], 93.4%.

For `CN1CCN(c2ccc(C(=O)Nc3n[nH]c4ncc(S(=O)(=O)c5cc(F)cc(F)c5)cc34)c(NC3CCOCC3)c2)CC1` [Compound 27-1, N-(5-(3,5-difluorophenylsulfonyl)-1H-pyrazolo[3,4-b]pyridin-3-yl)-4-(4-methylpiperazin-1-yl)-2-(tetrahydro-2H-pyran-4-ylamino)benzamide], the inhibition at 0.01 µM in experiment [3] stood at 97.8%; in [4] it was 93%; in experiment [5] it was 96.8%.

As for `CN1CCN(c2ccc(C(=O)Nc3n[nH]c4ncc(Sc5cc(F)cc(F)c5)cc34)c(NC3CCOCC3)c2)CC1` [Compound 30, N-(5-(3,5-difluorophenylthio)-1-H-pyrazolo[3,4-b]pyridine-3-yl)-4-(4-methylpiperazine-1-yl)-2-(tetrahydro-2H-pyran-4-ylamino)benzamide], the IC50 in experiment [1] turned out to be 0.045 µM; in experiment [2], 0.031 µM. Moreover, the inhibition at 0.01 µM turned out to be 93.8% in [3], 84% in [4] and 64% in experiment [5]. Moreover, the “inhibition of paw licking” value in experiment [6] is 44%. Also, the “dose from which spontaneous pain was completely or nearly completely reversed” value in experiment [7] (flinches) is listed as at least 0.16 mg/kg. Further, in experiment [7] (intraperitoneal injection, FIG. 2A), the “inhibition of spontaneous flinches (acute inflammatory pain)” value is on record as “dose-dependently inhibited”. Besides, the “inhibition of mechanical allodynia (von Frey)” value in experiment [7] (oral administration, FIG. 2B) is listed as “dose-dependently inhibited”. Moreover, the “dose from which mechanical allodynia was completely or nearly completely reversed” value in experiment [7] (von Frey) was at least 2.5 mg/kg. Besides, the light touch-evoked flinching entry in [8] (2.5 mg/kg i.p. chronically from day 7, effect from day 8, FIG. 3B) is “significantly reduced”. Further, in experiment [8] (2.5 mg/kg i.p. chronically from day 7, effect from day 10, FIG. 3A), the limb use score result was “significantly reduced”. Also, the “doses at which complete or nearly complete reversion of NGF-induced hyperalgesia occurred” value in experiment [9] (intraperitoneal or oral route, P<0.05 vs NGF alone) is given as at most 10 mg/kg. For the same molecule, the “inhibition of NGF-induced hyperalgesia (latency time)” value in [9] (intraperitoneal route, FIG. 1A) was “dose-dependently inhibited”; in [9] (oral route, FIG. 1B), “dose-dependently inhibited”.

As for `CN1CCN(c2ccc(C(=O)Nc3n[nH]c4ncc(S(=O)(=O)Nc5cc(F)cc(F)c5)cc34)c(NC3CCOCC3)c2)CC1` [Compound 30-8, N-(5-(N-(3,5-difluorophenyl)sulfamoyl)-1H-pyrazolo[3,4-b]pyridin-3-yl)-4-(4-methylpiperazin-1-yl)-2-(tetrahydro-2H-pyran-4-ylamino)benzamide], the inhibition at 0.01 µM in experiment [3] was determined as 99%; in experiment [4], 96.6%; in [5] it was 97.3%.

As to `CN1CCN(c2ccc(C(=O)Nc3n[nH]c4ncc(Cc5cc(F)cc(F)c5)cc34)c(NC3CCOCC3)c2)CC1` [Compound 30-9, N-(5-(3,5-difluorobenzyl)-1H-pyrazolo[3,4-b]pyridin-3-yl)-4-(4-methylpiperazin-1-yl)-2-(tetrahydro-2H-pyran-4-ylamino)benzamide], the results for the inhibition at 0.01 µM in [3] and in experiment [4] were 55% and 98%, respectively.

With `Nc1n[nH]c2ncc(Sc3cc(F)cc(F)c3)cc12` [D], the figures for the IC50 in experiment [1] and in [2] were 22 µM and 35 µM, respectively.

(Values after patent US9381195B2, “Derivatives of azaindazole or diazaindazole type for treating pain” (PIERRE FABRE MEDICAMENT, priority 2012, dated 2016).)
